The target of experiment [1] is T1, pRbAB (Homo sapiens, UniProt P06400, DEL590-635).
T1 construct: untagged pRbAB (372-787 with the linker from 590-635 removed); made in house
T1 sequence (P06400 with tags, fused parts or gaps DEL590-635): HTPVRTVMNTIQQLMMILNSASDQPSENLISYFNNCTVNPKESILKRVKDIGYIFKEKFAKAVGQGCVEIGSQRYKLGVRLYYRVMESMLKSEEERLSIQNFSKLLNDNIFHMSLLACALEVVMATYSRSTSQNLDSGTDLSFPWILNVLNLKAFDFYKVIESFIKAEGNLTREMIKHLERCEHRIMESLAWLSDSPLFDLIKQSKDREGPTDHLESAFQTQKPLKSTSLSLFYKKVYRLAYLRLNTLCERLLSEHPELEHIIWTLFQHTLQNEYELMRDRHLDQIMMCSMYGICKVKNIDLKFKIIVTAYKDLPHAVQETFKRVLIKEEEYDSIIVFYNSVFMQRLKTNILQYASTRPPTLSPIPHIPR
Description: Isothermal titration calorimetry binding to pRbAB. Particulars: for Kd: ITC, pRbAB, 22° C. The method, then:
For use in isothermal titration calorimetry studies, untagged pRbAB (372-787 with the linker from 590-635 removed) was prepared as described in Xiao et al., PNAS USA, 100:2363-2368 (2003).
This example illustrates the ability of the thiadiazolin-3,5-dione compounds to bind directly to a truncated pRb protein construct containing the A and B domains of the pRb pocket (pRbAB) using isothermal titration calorimetry (ITC).
Binding of compounds 1-9 to pRbAB were measured by ITC using a MicroCal™ VP-ITC isothermal titration calorimeter (MicroCal, Inc). Proteins were extensively dialyzed against a buffer containing Hepes (20 mM), pH=7.5, NaCl (150 mM) and Tris carboxy ethyl phosphine (0.1 mM) prior to analysis. Eight to twelve μL injections of 750-1500 μM compound were titrated into a pRb solution (50-150 μM) pre-equilibrated to 22° C. After subtraction of dilution heats, calorimetric data were analyzed with the MicroCal™ Origin® V5.0 (MicroCal Software, Northampton, Mass.).
In general terms: ITC needs no label: the signal is the heat of the interaction.

The target in experiment [2] is T2, GST-pRbABC/6×His-Ad5E1ACR1-3 complex (Homo sapiens, UniProt P06400).
T2 construct: made in house; host or cells: pRb: Sf9; E1A: E. coli BL21(DE3)
T2 sequence (P06400 376-928): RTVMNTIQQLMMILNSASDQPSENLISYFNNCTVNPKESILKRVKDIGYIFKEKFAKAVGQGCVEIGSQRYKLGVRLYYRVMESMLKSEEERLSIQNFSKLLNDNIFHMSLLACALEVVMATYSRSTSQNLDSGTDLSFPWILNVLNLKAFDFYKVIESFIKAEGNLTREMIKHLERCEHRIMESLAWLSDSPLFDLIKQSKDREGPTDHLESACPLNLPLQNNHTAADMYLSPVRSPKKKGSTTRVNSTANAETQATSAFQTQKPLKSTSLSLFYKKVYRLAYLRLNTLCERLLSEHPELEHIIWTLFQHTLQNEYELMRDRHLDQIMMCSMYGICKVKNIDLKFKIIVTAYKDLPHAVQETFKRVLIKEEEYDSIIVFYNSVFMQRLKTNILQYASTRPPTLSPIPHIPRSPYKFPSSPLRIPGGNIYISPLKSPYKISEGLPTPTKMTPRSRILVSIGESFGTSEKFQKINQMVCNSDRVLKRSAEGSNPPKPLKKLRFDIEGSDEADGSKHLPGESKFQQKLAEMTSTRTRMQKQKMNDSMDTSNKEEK
Description: ELISA: disruption of pRb/Ad5-E1A complex. The note with it: disruption of pRb/viral oncoprotein complex; 100 nM E1A. In kind it is binding, adenovirus. How it is done: (§1) A similar ELISA assay was used to assess the ability of the compounds to inhibit the ability of HPV16-E7-mediated disruption of E2F/pRb complexes. For these studies, 6×His-HPV1AE7CR2-3 and 6×His-Ad5E1ACR1-3, containing the L×C×E motif, were employed. The assay described above was modified in such a way that GST-pRbABC alone was added to HPV-E7CR2-3+ compound, HPV-E7CR2-3+DMSO, Ad5-E1ACR1-3+ compound, or Ad5-E1ACR1-3 DMSO. Mouse monoclonal anti-His antibody (Fisher) diluted 1:10,000 was used to detect how much His-E7CR2-3 remained bound to GST-pRbABC on the plate. Mouse monoclonal Ad5-E1A antibody (Abeam) diluted 1:10,000 was used to detect how much E1ACR1-3 remained bound to GST-pRbABC on the plate. All other steps remained unchanged.

Experiment [3] deals with T3, GST-pRbABC/E2F complex disrupted by 6×His-Ad5E1ACR1-3 (Homo sapiens, UniProt P06400).
T3 construct: made in house; host or cells: pRb: Sf9; E2F1 and E1A: E. coli BL21(DE3)
T3 sequence (P06400 376-928): T2 sequence (P06400 376-928)
T3 sequence (Q01094 243-437 partner limits assumed): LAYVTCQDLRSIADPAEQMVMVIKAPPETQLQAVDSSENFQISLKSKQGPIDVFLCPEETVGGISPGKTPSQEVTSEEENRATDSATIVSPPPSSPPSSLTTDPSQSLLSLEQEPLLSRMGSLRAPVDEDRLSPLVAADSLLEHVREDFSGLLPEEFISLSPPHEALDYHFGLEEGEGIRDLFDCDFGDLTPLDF
Description: ELISA: inhibition of adenovirus E1A-mediated disruption of pRb/E2F complexes. Format: binding. Particulars: E2F remaining bound to pRb; 100 nM E1A. The method, then: Since HPV-E7 mediates high affinity pRb binding through the association of its L×C×E motif in CR2 to the B domain of pRb, the ability of the thiadiazolidinedione compounds to inhibit the ability of other L×C×E containing viral oncoproteins from disrupting E2F/pRb complexes was tested. The other L×C×E containing viral oncoproteins tested included HPV-E7 from a low risk HPV form (type 1A) and Adenovirus E1A proteins.
as §1
On the technique in general: ELISA stands for enzyme-linked immunosorbent assay.

As a reminder, the Kd is the constant that tells how readily two partners part at equilibrium. Higher therefore signals weaker binding. By IC50 is commonly meant the midpoint of a concentration-inhibition curve. A higher IC50 goes with weaker potency.

The structures appear in SMILES notation.

For the compound `Cc1ccccc1-n1sc(=O)n(C)c1=O` [Compound 3], in experiment [1] (ITC repeated after overnight dialysis of pRb/compound complex), the “reversibility of binding to pRb” value is “reversible”. The compound further showed a Kd in experiment [1] of 106 ± 34 nM. Also, the IC50 turned out to be 1000 ± 2100 nM in experiment [2] and 240 nM in experiment [3].
In the case of `Cc1cc(Cl)ccc1-n1sc(=O)n(C(C)C)c1=O` [Compound 4], in experiment [1], binding was characterised by a dissociation constant (Kd) of 187 ± 22 nM. In addition, the IC50 in experiment [2] came out at 3800 ± 1500 nM; in experiment [3], 1300 ± 2200 nM.

The values are drawn from US9447060B2, “Small molecule modulators of pRb inactivation” (The Wistar Institute of Anatomy and Biology, priority 2011, dated 2016).
